Measured values taken from US7632871B2, “Methods of making and methods of using antiseptic disinfectant, cosmetic and toiletries, medicine or food containing the same” (Mandom Corporation, priority 2002, dated 2009).

Key:
Format in all cases: cell-based
[1] = tested on: Staphylococcus aureus IF013276; assay: Dual minimum inhibitory concentration (agar dilution MIC) of 1,2-octanediol combined with a fragrance component, Staphylococcus aureus; conditions: fragrance component combined with 1,2-octanediol (50:50 by weight mixture); agar medium, 35° C., growth judged after two days
Procedure: (§1) Candida albicans IFO1594 (mycotic stomatitis), Staphylococcus aureus IF013276 (Staphylococcus aureus), and Pseudomonas aeruginosa IF013275 (Pseudomonas) are used as sample bacterias.
(§2) For preparing bacteria, as to Staphylococcus aureus and Pseudomonas, they are incubated at 35° C. in the agar medium, and further incubated at 35° C. after transferred into the bouillon medium. The inoculating bacteria is prepared by diluting the obtained culture solution to about 10^8 inoculating cell/ml.
(§3) With a dilution solvent of ethyl cellosolve of 20 w/w %, 1,2-octanediol solution of 5, 4, 3, 2.5, 2.25, 2, 1.75, 1.5, 1.25 and 1 w/v % are prepared.
(§4) While, as to thymol and the 50:50 by weight mixture of 1,2-octanediol and thymol, the dilution series are prepared by doubling diluting the 20w/v % solution.
(§5) 1 ml of each of the above-mentioned dilution series including the test material and 9 ml of the agar medium are introduced to each schales, and the above-mentioned inoculating bacteria was applied on each of the schales at the length of 1 cm.
(§6) Staphylococcus aureus and Pseudomonas were incubated at 35° C., and it was judged whether or not the bacteria had grown two days later. The yeast was incubated at 25° C., and it was judged whether or not the bacteria had grown three days later.
(§7) Each MIC of the obtained 1,2-octanediol, thymol, and the 50:50 mixture by weight of 1,2-octanediol and thymol corresponding the compounding amount of 1,2-octanediol and thymol is plotted to make out the dual minimum inhibitory concentration. Action and effect in case that two kinds of antibacterial materials are compounded can be judged by the dual minimum inhibitory concentration. More specifically, the actions caused by compounding two antibacterial materials are roughly classified into synergistic action, additive action and counteraction. Synergistic action is the action in that two kinds of agent act synergistically, to enhance the antibacterial activity that the agents originally have. The additive action is the action in that the antibacterial activities of the agents are put together. The counteraction is the action in that one agent cancels the antibacterial activity of the other agent.
(§8) The method using dual minimum inhibitory concentration, as shown in FIG. 1 for example, is the method to measure MICs as to material A and Material B at different proportions of them and to judge the result in view of the graph. In this method, a line is drawn to connect MIC (point A) in using only material A to MIC (point B) in using only material B. When the MIC (point C) in using both materials is inside the line, it is judged to be Synergistic action that antibacterial activity was strengthened by the combined use. When the MIC (point D) is on the line, it can be judged to be the additive action. When the MIC (point E) is in the outside of the line, it is judged to be the counteraction that cancels antibacterial activity of one or both of the materials to decrease the antibacterial activity.
(§9) The antibacterial effect in the case of mixing 1,2-octanediol and thymol was evaluated by the following evaluation criterion from dual minimum inhibitory concentration diagram in FIG. 2.

Candida albicans IFO1594 = assay: Dual minimum inhibitory concentration (agar dilution MIC) of 1,2-octanediol combined with a fragrance component, Candida albicans; conditions: fragrance component combined with 1,2-octanediol (50:50 by weight mixture); agar medium, 25° C., growth judged after three days
Procedure: as §1
As to yeast (Candida albicans), the inoculating bacteria is prepared by incubating the yeast in the same way as Staphylococcus aureus and Pseudomonas at 30° C. and diluting the yeast to about 10^7 cell/ml.
as §3, §4, §5, §6, §7, §8, §9

[2] = tested on: Pseudomonas aeruginosa IF013275; assay: Dual minimum inhibitory concentration (agar dilution MIC) of 1,2-octanediol combined with a fragrance component, Pseudomonas aeruginosa; conditions: fragrance component combined with 1,2-octanediol (50:50 by weight mixture); agar medium, 35° C., growth judged after two days
Procedure: as §1, §2, §3, §4, §5
Staphylococcus aureus and Pseudomonas were incubated at 35° C., and it was judged whether or not the bacteria had grown two days later. […]
as §9

Escherichia coli IFO3972 = assay: Dual minimum inhibitory concentration (agar dilution MIC) of 1,2-octanediol combined with a fragrance component, Escherichia coli; parameters: key: ◯: There is synergistic action in the antibacterial effect.; Δ: There is additive action in the antibacterial effect.; ×: There is counteraction in the antibacterial effect; conditions: fragrance component combined with 1,2-octanediol (50:50 by weight mixture); same way as Embodiment 1, E. coli instead of P. aeruginosa
Procedure: as §2, §3, §4
1 ml of each of the above-mentioned dilution series including the test material and 9 ml of the agar medium are introduced to each schales, and the above-mentioned inoculating bacteria was applied on each of the schales at the length of 1 cm. […]
as §9
Manipulating each of citronellol and β-pinene for fragrance component in the same way as in Embodiment 1 using Escherichia coli IFO3972 instead of Pseudomonas aeruginosa IF013275, each dual minimum inhibitory concentration of FIGS. 6-7 was obtained. […] From the obtained result, the antibacterial effect was evaluated by the above-mentioned evaluation criterion.

Row | Molecule | antibacterial effect of mixing with 1,2-octanediol, judged from dual minimum inhibitory concentration diagram, S. aureus [1] | antibacterial effect of mixing with 1,2-octanediol, judged from dual minimum inhibitory concentration diagram, C. albicans (Candida albicans IFO1594) | antibacterial effect of mixing with 1,2-octanediol, judged from dual minimum inhibitory concentration diagram, P. aeruginosa [2] | antibacterial effect of mixing with 1,2-octanediol, judged from dual minimum inhibitory concentration diagram, E. coli (Escherichia coli IFO3972)
1 | guaiac acetate [reference compound] | ∘ | – | – | –
2 | Cc1ccc(C(C)C)c(O)c1 [Thymol] | ∘ | ∘ | ∘ | –
3 | CC(C)=CCCC(C)CCO (stereo not drawn) [citronellol] | ∘ | ∘ | – | ∘
4 | CC(=O)OC(C)(C)C1CC=C(C)CC1 (stereo not drawn) [terpinyl acetate] | ∘ | ∘ | – | –
5 | C=C1CCC2CC1C2(C)C (stereo not drawn) [β-pinene] | ∘ | ∘ | – | Δ
6 | CC(=O)O[C@@H]1C[C@H]2CC[C@]1(C)C2(C)C (racemic) [isobornyl acetate, reference compound] | ∘ | – | – | –
7 | C=CCc1ccc(O)c(OC)c1 [Eugenol] | ∘ | ∘ | ∘ | –
8 | CC(C)=CCCC(C)CC=O (stereo not drawn) [citronellal] | ∘ | ∘ | – | –
